Laboratory results: patent publication US20240269139A1, “COMPOUNDS FOR TARGETED PROTEIN DEGRADATION OF KINASES” (DANA-FARBER CANCER INSTITUTE, INC., priority 2020, published 2024)
Read-outs that look alike come from different tables or passages of the source.

Experiments:
Type in all cases: cell-based
[1] = target: T1, protein kinases (human kinome) (Homo sapiens, UniProt P78356); details: PIP4K2B (P78356)
T1 sequence (P78356 1-416): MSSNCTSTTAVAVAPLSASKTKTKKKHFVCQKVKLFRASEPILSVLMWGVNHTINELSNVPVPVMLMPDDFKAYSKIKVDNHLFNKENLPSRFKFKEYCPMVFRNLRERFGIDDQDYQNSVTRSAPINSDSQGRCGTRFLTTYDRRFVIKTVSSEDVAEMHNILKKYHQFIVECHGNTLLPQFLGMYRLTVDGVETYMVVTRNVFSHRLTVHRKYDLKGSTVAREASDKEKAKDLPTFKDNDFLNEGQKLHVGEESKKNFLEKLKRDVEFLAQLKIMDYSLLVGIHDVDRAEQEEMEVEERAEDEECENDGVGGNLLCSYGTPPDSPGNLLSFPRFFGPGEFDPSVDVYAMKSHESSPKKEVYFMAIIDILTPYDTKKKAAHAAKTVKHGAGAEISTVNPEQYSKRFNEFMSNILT

[2] = target: T2, protein kinases (human kinome) (Homo sapiens, UniProt P29323)
T2 sequence (P29323 19-1055): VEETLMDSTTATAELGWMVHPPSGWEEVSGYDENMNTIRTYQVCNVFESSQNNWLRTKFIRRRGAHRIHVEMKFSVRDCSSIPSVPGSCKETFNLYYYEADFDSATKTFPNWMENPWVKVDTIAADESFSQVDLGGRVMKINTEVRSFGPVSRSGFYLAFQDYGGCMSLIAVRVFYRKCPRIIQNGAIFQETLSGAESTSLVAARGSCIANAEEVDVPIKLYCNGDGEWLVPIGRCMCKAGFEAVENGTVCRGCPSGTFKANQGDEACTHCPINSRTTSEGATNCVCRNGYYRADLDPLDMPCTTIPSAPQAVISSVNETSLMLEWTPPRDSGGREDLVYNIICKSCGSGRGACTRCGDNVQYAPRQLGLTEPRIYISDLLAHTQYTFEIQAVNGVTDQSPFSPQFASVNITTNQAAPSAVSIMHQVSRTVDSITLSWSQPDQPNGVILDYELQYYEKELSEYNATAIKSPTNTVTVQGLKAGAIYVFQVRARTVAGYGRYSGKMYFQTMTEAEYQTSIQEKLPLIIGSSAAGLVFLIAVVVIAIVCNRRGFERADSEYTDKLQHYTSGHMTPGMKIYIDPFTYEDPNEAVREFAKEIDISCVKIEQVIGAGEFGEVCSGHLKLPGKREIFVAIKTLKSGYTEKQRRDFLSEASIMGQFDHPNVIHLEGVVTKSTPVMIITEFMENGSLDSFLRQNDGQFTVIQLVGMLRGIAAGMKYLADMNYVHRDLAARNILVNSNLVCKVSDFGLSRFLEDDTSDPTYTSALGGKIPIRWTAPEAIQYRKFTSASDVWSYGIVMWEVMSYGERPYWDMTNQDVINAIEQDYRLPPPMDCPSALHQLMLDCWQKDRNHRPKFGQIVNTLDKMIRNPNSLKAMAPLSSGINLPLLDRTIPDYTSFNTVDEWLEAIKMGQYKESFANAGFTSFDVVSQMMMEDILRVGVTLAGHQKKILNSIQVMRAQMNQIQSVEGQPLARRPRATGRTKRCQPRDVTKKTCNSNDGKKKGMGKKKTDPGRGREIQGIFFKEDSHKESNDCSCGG

[3] = target: protein kinases (human kinome) (Homo sapiens, UniProt Q13131); details: for logFC PRKAA1 (Q13131): direction down
[4] = target: protein kinases (human kinome) (Homo sapiens, UniProt Q8N4C8); details: experiment wp107
protein kinases (human kinome) (Homo sapiens, UniProt Q8N4C8), sequence (Q8N4C8 whole entry): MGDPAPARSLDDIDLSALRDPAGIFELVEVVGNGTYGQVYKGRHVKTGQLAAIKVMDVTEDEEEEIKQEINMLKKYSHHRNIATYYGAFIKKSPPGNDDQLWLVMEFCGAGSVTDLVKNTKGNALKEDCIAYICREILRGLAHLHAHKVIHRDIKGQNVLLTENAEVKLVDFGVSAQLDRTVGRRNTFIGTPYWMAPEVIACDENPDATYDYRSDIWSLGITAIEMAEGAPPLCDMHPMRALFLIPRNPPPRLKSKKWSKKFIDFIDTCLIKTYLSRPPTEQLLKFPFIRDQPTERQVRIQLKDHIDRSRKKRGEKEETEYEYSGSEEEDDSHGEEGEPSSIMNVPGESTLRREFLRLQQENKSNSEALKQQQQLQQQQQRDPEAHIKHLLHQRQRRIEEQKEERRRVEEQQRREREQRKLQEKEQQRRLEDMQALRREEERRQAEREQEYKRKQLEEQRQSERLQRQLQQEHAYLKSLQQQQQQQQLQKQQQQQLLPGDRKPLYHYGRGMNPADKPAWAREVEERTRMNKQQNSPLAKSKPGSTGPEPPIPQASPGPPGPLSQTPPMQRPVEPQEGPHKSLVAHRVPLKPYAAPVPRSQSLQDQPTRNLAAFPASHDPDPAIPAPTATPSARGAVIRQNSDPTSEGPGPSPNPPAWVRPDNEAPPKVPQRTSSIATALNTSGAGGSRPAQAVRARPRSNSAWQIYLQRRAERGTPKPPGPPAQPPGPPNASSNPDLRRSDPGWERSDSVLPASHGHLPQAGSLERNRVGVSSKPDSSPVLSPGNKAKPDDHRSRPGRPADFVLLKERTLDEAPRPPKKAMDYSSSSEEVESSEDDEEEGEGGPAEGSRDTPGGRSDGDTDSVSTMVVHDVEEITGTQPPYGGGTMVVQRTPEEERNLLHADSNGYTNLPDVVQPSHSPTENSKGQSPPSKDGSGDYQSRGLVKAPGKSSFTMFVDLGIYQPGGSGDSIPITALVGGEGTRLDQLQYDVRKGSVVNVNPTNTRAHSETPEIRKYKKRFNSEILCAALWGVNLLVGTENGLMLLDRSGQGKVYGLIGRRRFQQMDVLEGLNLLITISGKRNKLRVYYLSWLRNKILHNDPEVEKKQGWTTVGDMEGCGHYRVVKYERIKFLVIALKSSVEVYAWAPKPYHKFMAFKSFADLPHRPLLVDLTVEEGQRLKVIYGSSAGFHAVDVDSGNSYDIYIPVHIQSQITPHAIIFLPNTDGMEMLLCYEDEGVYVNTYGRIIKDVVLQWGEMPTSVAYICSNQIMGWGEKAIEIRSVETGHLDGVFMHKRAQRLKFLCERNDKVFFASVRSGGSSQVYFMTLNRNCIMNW

protein kinases (human kinome) (Homo sapiens, UniProt Q13131), sequence (Q13131 whole entry): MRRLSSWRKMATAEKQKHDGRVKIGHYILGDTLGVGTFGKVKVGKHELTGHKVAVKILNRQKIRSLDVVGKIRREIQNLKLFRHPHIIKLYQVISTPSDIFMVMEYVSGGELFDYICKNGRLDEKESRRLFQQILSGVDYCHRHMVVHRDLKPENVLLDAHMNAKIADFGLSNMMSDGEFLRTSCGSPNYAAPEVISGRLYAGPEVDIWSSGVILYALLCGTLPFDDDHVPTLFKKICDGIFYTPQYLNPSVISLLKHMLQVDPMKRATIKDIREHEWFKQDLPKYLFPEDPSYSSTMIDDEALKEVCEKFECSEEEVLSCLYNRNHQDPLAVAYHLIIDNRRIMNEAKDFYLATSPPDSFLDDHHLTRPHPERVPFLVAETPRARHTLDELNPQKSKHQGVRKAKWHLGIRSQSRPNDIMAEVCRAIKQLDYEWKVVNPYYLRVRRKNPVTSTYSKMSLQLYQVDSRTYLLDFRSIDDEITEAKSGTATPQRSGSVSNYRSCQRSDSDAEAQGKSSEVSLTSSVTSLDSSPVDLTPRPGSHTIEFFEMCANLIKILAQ

Structure (SMILES): Cc1ccc(NC(=O)c2cccc(C(F)(F)F)c2)cc1N1Cc2cnc(Nc3ccc(N4CCN(Cc5cn(CCCCCOc6cccc7c6C(=O)N(C6CCC(=O)NC6=O)C7=O)nn5)CC4)nc3)nc2N(C)C1=O (centres unmarked) [DB0646, N-(3-(7-((6-(4-((1-(5-((2-(2,6-Dioxopiperidin-3-yl)-1,3-dioxoisoindolin-4-yl)oxy)pentyl)-1H-1,2,3-triazol-4-yl)methyl)piperazin-1-v)pyridin-3-yl)amino)-1-methyl-2-oxo-1,4-dihydropyrimido[4,5-d]pyrimidin-3(2H)-yl)-4-methylphenyl)-3-(trifluoromethyl)benzamide]
- logFC ([1]; experiment wp045): −1.296
- logFC ([1]; experiment wp103): −0.6848
- logFC ([1]; experiment wp107): −1.024
- logFC ([1]; experiment wp117): −1.027
- logFC ([1]; experiment wp152): −1.147
- logFC ([1]; experiment wp160, 4 hr): −0.5025
- logFC ([1]; experiment wp160, 8 hr): −0.8848

Structure (SMILES): CC(C)S(=O)(=O)c1ccccc1Nc1nc(Nc2ccc(N3CCN(CCOCCNC(=O)CNc4cccc5c4C(=O)N(C4CCC(=O)NC4=O)C5=O)CC3)cc2)ncc1Cl (centres unmarked) [SK.3.91]
- logFC ([2]; EPHB2 (P29323), experiment wp107): −0.6293
- logFC of EPHB2 (P29323) ([2]; Experiment wp107): −0.6293
- logFC of PRKAA1 (Q13131) ([3]; Experiment wp160, 2 hr): −0.3284
- logFC PRKAA1 (Q13131) ([3]; Experiment wp160, 2 hr): −0.3284
- logFC PRKAA1 (Q13131) ([3]; Experiment wp160, 4 hr): −0.6117
- logFC of PRKAA1 (Q13131) ([3]; Experiment wp172): −0.4542
- logFC PRKAA1 (Q13131) ([3]; Experiment wp172): −0.4542
- logFC of PRKAA1 (Q13131) ([3]; experiment wp160, 4 hr): −0.6117

Structure (SMILES): Nc1ncc(-c2ccc(S(=O)(=O)N(CCCNC(=O)CCOCCOCCOCCOCCOCCNc3cccc4c3C(=O)N(C3CCC(=O)NC3=O)C4=O)C3CC3)cc2)cc1-c1ccc2c(c1)CCNC2=O (centres unmarked) [WH.10417.099]
- logFC MINK1 (Q8N4C8-1) ([4]; direction of change down): −0.5661
- logFC MINK1 ([4]; protein MINK1 (Q8N408-1), down): −0.5661
